# Legend:
# [1] = target: T1, human recombinant PARG (AA 389-976) (Homo sapiens, UniProt Q86W56); experiment: Surface plasmon resonance (SPR) direct binding
# T1 construct: His-tagged human recombinant PARG (AA 389-976) was coupled to a CM5 biosensor chip; made in house; host or cells: E. coli BL21 (DE3), pET28a
# human recombinant PARG = target: T2, human recombinant PARG (Homo sapiens, UniProt Q86W56); experiment: HTRF assay of PARG enzymatic activity with PARylated-PARP1 substrate; format: biochemical; settings: geometric mean, n=14
# T2 construct: Human PARG (amino acids 389-976; Uniprot ID Q86W56-1); 6xHis (N, cleaved yes); TEV cleavage site (N, cleaved yes); made in house; host or cells: PARG: E. coli BL21 (DE3); PARP1 substrate: High Five insect cells (baculovirus)
# 5-HT2A receptor [2] = target: T3, 5-HT2A receptor (Homo sapiens, UniProt P28223); experiment: Eurofins selectivity panel, radioligand competition binding at 10 μM
# T3 construct: Eurofins (contract study)
# Method: (§1) The inhibitory potential of Compound 1 was tested against 38 diverse non-kinase enzymes and 55 receptors, ion channels and neurotransmitter transporters in radioligand competition binding assays using mostly human recombinant proteins. […] Compound 1 was also tested against an additional panel of 468 protein kinases. Studies were performed at Eurofins (Luxembourg City, Luxembourg) using their published assay formats.
# human A1 receptor = target: T4, human A1 receptor (Homo sapiens, UniProt P30542); experiment: as above
# T4 construct: Eurofins (contract study)
# Method: as §1
# 5-HT2A receptor [3] = target: T3, 5-HT2A receptor; experiment: Follow-on study, agonist and antagonist IC50; format: binding; settings: antagonist
# DRYK1B = target: T5, DRYK1B (Homo sapiens, UniProt Q9Y463); experiment: Eurofins protein kinase panel at 10 μM; format: biochemical
# T5 construct: Eurofins (contract study)
# Method: as §1
# [4] = test system: panel of 468 protein kinases (all other kinases tested); experiment: Eurofins protein kinase panel at 10 μM; format: biochemical
# Method: as §1
# Parental SNU601 cells = experiment: 6-day proliferation, nuclei count, parental line; format: cell-based; settings: Homo sapiens, SNU-601, 144 h, read-out: IC50 inhibition of proliferation
# Method: The SNU601 gastric carcinoma cell line (Creative Bioarray, Cat #CSC-C9686L) was cultured in RPMI media containing glutamax, 10% fetal bovine serum, and 1% penicillin/streptomycin at 37° C., 5% CO2. To generate a PARP inhibitor resistant cell line, an IC20 concentration of niraparib was added to the culture media.
# Compound 1 and the PARP inhibitor niraparib were tested in cellular proliferation assays using the parental SNU601 cell line and the SNU601 cell line with acquired PARPi resistance. For the proliferation assays, cells were plated in 96-well plates (Corning costar 3603) at 2500-5000 cells/well in normal growth media. The next day, compound dissolved in vehicle (0.5% DMSO in media) was added to generate a 7- to 10-point concentration curve with half-log dilutions and starting concentrations of 10 or 31.6 μM. After 6 days of compound or vehicle treatment, the cells were fixed with a solution of 8% paraformaldehyde, 0.2% Triton X-100 for 20 minutes. After washing the cells with PBS, the nuclei were stained by the addition of DAPI (4′,6-diamidino-2-phenylindole) and incubation for 20 minutes. The number of nuclei in each well were counted by imaging the plates on an Image Xpress Pico automated cell imaging system (Molecular Devices). The percent proliferation after treatment was determined by normalizing the number of nuclei in treated wells to the vehicle-treated wells. […]
# HCC1806 cells = experiment: 6-day growth assay, Compound 1 in combination with exatecan; format: cell-based; settings: Homo sapiens
# Method: (§2) The activity of Compound 1 in combination with exatecan was evaluated in the HCC1954, HCC1806, and GP2D cancer cell lines in a 6-day growth assay. HCC1954 (Cat #CRL-2338) and HCC1806 (Cat #CRL-2335) cells were obtained from American Type Culture Collection (ATCC) and maintained in ATCC modified RPMI (Cat #30-2001)+10% FBS (Cat #A3160502)+1% penicillin/streptomycin (Cat #15140-122) in a humidified incubator at 37° C., 5% CO2. GP2D cells were obtained from ECACC (Cat #95090714-1VL) and maintained in DMEM+GlutaMAX (Cat #10566-016)+10% FBS (Cat #A3160502)+1% penicillin/streptomycin (Cat #15140-122). Cells were seeded at 2,500 cells/well (HCC1954 and GP2D) or 2,000 cells/well (HCC1806) in 100 μL of growth medium in a 96-well plate (Corning costar Cat #3603) and allowed to adhere overnight at 37° C. with 5% CO2. The next day, serial dilutions of Compound 1 and exatecan were prepared and added to the corresponding wells of a 96-well plate. A solution of 0.1% DMSO in medium was used as the negative control. Cells were incubated with compound for 6 days at 37° C. with 5% CO2, then fixed, stained, and counted as described in Example 3. Concentration response-curves and IC50 values were generated by non-linear regression analysis using a 4-parameter variable slope fit in GraphPad Prism 10 software. Potential synergy between Compound 1 and exatecan was assessed using Zero interaction potency (ZIP), Highest Single Agent (HSA), Bliss, and Loewe synergy models to find the most synergistic area score, where scores >10 indicate that the interaction between the two drugs is likely to be synergistic (Ianevski et al. 2020).
# HCC1954 cells = experiment: as above; format: cell-based; settings: Homo sapiens
# Method: as §2
# HCC1806 xenograft = experiment: HCC1806 triple negative breast cancer CDX, combination with camonsertib (RP-3500); design: species or system Athymic nude mice; settings: mouse, in vivo
# Method: HCC1806 cells were cultured in RPMI medium containing 10% FBS (Thermo Fisher Scientific Cat #A31605-02) and penicillin+streptomycin (Thermo Fisher Scientific Cat #15070-063). The CDX model was established by subcutaneous inoculation of 1×10^6 HCC1806 cells/mouse into the right flank of Athymic nude mice (The Jackson Laboratory, Bar Harbor, ME, USA, Cat #002019). […] Compound 1 was administered to mice at 200 mg/kg to mice orally once daily from Monday through Friday throughout the treatment period and camonsertib (RP-3500) was administered at 15 mg/kg orally once daily from Monday through Wednesday throughout the treatment period (Table 11).
# Tumor volumes and body weights were measured twice weekly. […] Statistical analysis of end-of-study tumor volumes relative to the vehicle group tumor volume was performed using Kruskal-Wallis Anova test with Dunn's multiple comparisons test.
# T1 sequence (Q86W56 389-976): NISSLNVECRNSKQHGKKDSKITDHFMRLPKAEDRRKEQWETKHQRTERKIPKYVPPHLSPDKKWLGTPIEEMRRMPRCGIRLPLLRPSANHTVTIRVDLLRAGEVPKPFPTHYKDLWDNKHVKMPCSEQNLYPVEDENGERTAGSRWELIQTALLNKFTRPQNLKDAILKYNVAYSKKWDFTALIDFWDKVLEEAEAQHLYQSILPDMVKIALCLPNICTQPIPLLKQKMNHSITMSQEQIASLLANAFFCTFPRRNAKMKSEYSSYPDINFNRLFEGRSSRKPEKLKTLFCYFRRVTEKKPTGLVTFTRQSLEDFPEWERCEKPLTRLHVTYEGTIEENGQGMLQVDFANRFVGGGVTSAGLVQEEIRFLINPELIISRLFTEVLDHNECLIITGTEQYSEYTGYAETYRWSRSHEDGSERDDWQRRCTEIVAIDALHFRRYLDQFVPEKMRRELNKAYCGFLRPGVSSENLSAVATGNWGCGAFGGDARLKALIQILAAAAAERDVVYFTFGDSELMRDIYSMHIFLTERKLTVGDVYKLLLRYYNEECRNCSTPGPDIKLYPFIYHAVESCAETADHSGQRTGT
# T3 sequence (P28223 whole entry): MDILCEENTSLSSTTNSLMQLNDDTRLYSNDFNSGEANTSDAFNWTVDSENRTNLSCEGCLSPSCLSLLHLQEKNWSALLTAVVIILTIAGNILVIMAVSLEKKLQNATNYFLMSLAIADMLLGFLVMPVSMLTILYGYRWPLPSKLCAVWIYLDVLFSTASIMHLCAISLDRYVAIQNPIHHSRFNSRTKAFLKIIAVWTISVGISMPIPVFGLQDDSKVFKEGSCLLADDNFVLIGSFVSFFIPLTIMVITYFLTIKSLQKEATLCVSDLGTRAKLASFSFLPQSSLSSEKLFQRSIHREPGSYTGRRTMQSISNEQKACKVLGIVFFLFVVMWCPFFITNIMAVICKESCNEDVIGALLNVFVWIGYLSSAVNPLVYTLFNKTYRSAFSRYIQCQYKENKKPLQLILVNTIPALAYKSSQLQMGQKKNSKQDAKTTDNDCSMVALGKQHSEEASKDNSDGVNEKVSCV
# T5 sequence (Q9Y463 whole entry): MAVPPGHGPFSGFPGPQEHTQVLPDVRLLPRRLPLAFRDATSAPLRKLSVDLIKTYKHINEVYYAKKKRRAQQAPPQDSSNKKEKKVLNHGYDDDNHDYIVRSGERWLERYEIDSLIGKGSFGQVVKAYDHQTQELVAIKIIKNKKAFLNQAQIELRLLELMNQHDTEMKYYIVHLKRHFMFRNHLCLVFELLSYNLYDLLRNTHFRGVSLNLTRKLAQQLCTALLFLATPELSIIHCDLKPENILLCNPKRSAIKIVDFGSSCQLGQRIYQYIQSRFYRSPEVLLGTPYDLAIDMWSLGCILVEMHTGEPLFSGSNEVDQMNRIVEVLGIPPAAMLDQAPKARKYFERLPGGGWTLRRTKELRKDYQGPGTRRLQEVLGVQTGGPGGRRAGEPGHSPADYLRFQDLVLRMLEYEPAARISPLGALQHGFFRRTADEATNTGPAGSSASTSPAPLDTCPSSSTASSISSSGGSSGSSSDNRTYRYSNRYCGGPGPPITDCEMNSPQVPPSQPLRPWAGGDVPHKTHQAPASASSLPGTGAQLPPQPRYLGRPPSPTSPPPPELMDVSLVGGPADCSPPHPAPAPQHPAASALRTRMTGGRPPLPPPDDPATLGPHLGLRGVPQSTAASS
# T4 sequence (P30542 whole entry): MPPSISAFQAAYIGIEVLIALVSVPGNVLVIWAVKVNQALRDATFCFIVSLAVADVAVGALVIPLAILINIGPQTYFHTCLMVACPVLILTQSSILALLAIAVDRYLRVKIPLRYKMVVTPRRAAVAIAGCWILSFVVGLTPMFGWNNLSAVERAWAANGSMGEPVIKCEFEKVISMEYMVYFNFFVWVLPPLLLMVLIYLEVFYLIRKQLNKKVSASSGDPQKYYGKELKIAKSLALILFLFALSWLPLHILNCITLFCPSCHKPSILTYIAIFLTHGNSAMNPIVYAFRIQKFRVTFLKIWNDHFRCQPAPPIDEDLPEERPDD
# T2 sequence (Q86W56 389-976): as the sequence (Q86W56 389-976) above
smiles,measurement,setting,value
"[2H]C([2H])(c1cnn(C)c1)N1C(=O)c2cc(S(=O)(=O)NC3(C)CC3)ccc2N2C1=NC[C@H]2C [Compound 1, (R)-1-methyl-4-((1-methyl-1H-pyrazol-4-yl)methyl-d2)-N-(1-methylcyclopropyl)-5-oxo-1,2,4,5-tetrahydroimidazo[1,2-a]quinazoline-7-sulfonamide]",Kd,"[1]; SPR kinetic KD, 1:1 binding, 25° C., mean n=2",1.1 nM
same,Rmax (Relative Units),[1]; relative amount of PARG bound by Compound 1,15.9 Relative Units
same,Theoretical Rmax,[1]; total amount of PARG immobilized on the biosensor chip,19.8
same,IC50,human recombinant PARG,85 nM
same,inhibition at 10 µM,5-HT2A receptor [2],64%
same,inhibition at 10 µM,human A1 receptor,67%
same,IC50,5-HT2A receptor [3],21000 nM
same,Kb,5-HT2A receptor [3]; read-out: dissociation constant (KB),4200 nM
same,inhibition at 10 µM,DRYK1B,51%
same,% inhibition,[4],< 50%
same,IC50,Parental SNU601 cells,210 nM
same,IC50,HCC1806 cells; exatecan 0.001 nM,1900 nM
same,IC50,HCC1806 cells; exatecan 0.01 nM,1500 nM
same,IC50,HCC1806 cells; exatecan 0.03 nM,1200 nM
same,IC50,HCC1806 cells; exatecan 0.1 nM,300 nM
same,IC50,HCC1954 cells; exatecan 0.001 nM,6900 nM
same,IC50,HCC1954 cells; exatecan 0.01 nM,7200 nM
same,IC50,HCC1954 cells; exatecan 0.03 nM,6600 nM
same,IC50,HCC1954 cells; exatecan 0.1 nM,5200 nM
same,IC50,HCC1954 cells; exatecan 0.3 nM,900 nM
same,body weight change during the treatment period,HCC1806 xenograft,body weight gains

# — patent US20260272936A1, “TREATMENT OF CANCER WITH A PARG INHIBITOR” (858 Therapeutics, Inc., priority 2023, published 2026)
